test system: MCF7 human breast cancer cell line; test: SRB antiproliferative assay, MCF7; assay type: cell-based; conditions: Homo sapiens, MCF7, 72 h, SRB, 72 h, mean ± SD
Experimental: (§1) We determined the effect of various structural factors in the substrates on the antiproliferative activity against those selected to the study cell lines: the location and/or the presence of the prenyl group, the chalcone/flavanone skeleton and the presence of an O-methyl group at C-5 in flavanones. Flavonoids presented in Figure 1 were tested for the antiproliferative activity towards eight cancer cell lines including estrogen-dependent (MCF7 and T-47D) and two normal ones (HLMEC and MCF 10A). The in vitro antiproliferative activity was measured using SRB assay. The results are presented in Figure 2 (and in the supplement in Table S1). The antiproliferative activity was measured separately for each of the experiments and given as the average IC50 (the concentration of tested compound which inhibits 50% of the cells population). Cisplatin (CP), a common anticancer drug, was used as a positive control.
(§2) The following established in vitro cell lines were applied: MCF7, T-47D, MDA-MB-231 (human breast cancer cell line), A2780 (human ovarian cancer cell line), A2780cis (human cisplatin-resistant ovarian cancer cell line), PC-3 and DU 145 (human prostate cancer cell lines), HT-29 (human colon cancer cell line), HLMEC (human lung microvascular endothelial cell line), and MCF 10A (human mammary epithelial cells line).
(§3) The cell lines: MDA-MB-231, HT-29, PC-3, DU 145, and MCF 10A were obtained from the American Type Culture Collection (Rockville, MD, USA), MCF7, T-47D, A2780, A2780cis from the European Collection Cell Cultures (Sigma-Aldrich, Chemie GmbH, Steinheim, Germany), while the HLMEC cell line was obtained by M. Paprocka from the institute. All cell lines are being maintained in the Institute of Immunology and Experimental Therapy (Wrocław, Poland). DU 145 and MCF7 cells were cultured in Eagle medium (supplemented with 4mM L-glutamine, 10% fetal bovine serum, 1 mM sodium pyruvate for DU 145 cells or 2 mM L-glutamine, 1% mem non-essential amino acid solution and 8 µg/mL insulin and 10% fetal bovine serum for MCF7). […] HT-29 and T-47D cell lines were cultured in RPMI 1640 + OPTI-MEM medium supplemented with 2 mM L-glutamine, 5% fetal bovine serum and 8 µg/mL of insulin (T-47D) or 1 mM sodium pyruvate (HT-29). MDA-MB-231, PC-3 and HLMEC cell lines were cultured in RPMI 1640 medium supplemented with 2 mM L-glutamine and 10% fetal bovine serum. Medium for MCF 10A cell line consisted of F-12 nutrient mixture supplemented with cholera toxin (0.05 µg/mL), insulin (10 µg/mL), hydrocortisone (0.5 µg/mL), 5% horse serum, and EGFH (20 ng/mL). All the culture media contained antibiotics: 100 units/mL penicillin (Polfa Tarchomin SA, Warsaw, Poland), and 100 µg/mL streptomycin (Sigma-Aldrich, Chemie GmbH, Steinheim, Germany). All cell lines were grown at 37 °C with 5% CO2 humidified atmosphere.
(§4) Twenty-four hours before the incubation with the tested compounds, the cells were seeded in 96-plates (Sarstedt, Germany) at a density of 1 × 10^4 cells per well (0.75 × 10^4 per well for MCF7 and 1 × 10^3 per well for HLMEC) in 100 µL of a culture medium.
(§5) Each agent at each concentration (from 0.1 to 100 µg/mL) was tested in a single experiment, which was repeated four to five times. […] Cisplatin was used as a reference drug.
(§6) The results were calculated as the IC50 (inhibitory concentration 50%)—the concentration of the tested compound which inhibits 50% of the cells population. IC50 values were calculated for each experiment separately and mean values ± SD are presented in the Table S1 in the Supplementary Materials. Each compound at each concentration was tested in triplicate in a single experiment, which was repeated four to five times.
(§7) The cells were fixed in situ by gently adding cold 50% trichloroacetic acid (50 µL per well). The plates were incubated at 4 °C for 1h and then washed five times with tap water. […]

Row | Structure (SMILES) | IC50
1 | COc1cc(O)c(CC=C(C)C)c(O)c1C(=O)CCc1ccc(O)cc1 [2HXN, 3′-(3,3-dimethylallyl)-4,2′,4′-trihydroxy-6′-methoxy-α,β-dihydrochalcone] | 10.1 ± 2.31 µM

same assay, conditions: IC50 HLMEC / IC50 MCF-7

Row | Structure (SMILES) | Selectivity index SIA, MCF-7
2 | COc1cc(O)c(CC=C(C)C)c(O)c1C(=O)CCc1ccc(O)cc1 [2HXN, 3′-(3,3-dimethylallyl)-4,2′,4′-trihydroxy-6′-methoxy-α,β-dihydrochalcone] | 1.41

same assay, conditions: IC50 MCF-10A / IC50 MCF-7

Row | Structure (SMILES) | Selectivity index SIB, MCF-7
3 | COc1cc(O)c(CC=C(C)C)c(O)c1C(=O)CCc1ccc(O)cc1 [2HXN, 3′-(3,3-dimethylallyl)-4,2′,4′-trihydroxy-6′-methoxy-α,β-dihydrochalcone] | 7.15

test system: MCF 10A human mammary epithelial cells line; test: SRB antiproliferative assay, MCF 10A (normal); assay type: cell-based; conditions: Homo sapiens, MCF-10A, 72 h, mean ± SD, read-out: Normal cell line, IC50, MCF-10A
Experimental: as §1, §2, §3, §4, §5, §6, §7

Row | Structure (SMILES) | IC50
4 | COc1cc(O)c(CC=C(C)C)c(O)c1C(=O)CCc1ccc(O)cc1 [2HXN, 3′-(3,3-dimethylallyl)-4,2′,4′-trihydroxy-6′-methoxy-α,β-dihydrochalcone] | 72 ± 8.55 µM

test system: A2780 human ovarian cancer cell line; test: SRB antiproliferative assay, A2780; assay type: cell-based; conditions: Homo sapiens, A2780; SRB, 72 h, mean ± SD; read-out: Cancer cell line, IC50, A-2780
Experimental: as §1, §2, §3, §4, §5, §6, §7

Row | Structure (SMILES) | IC50
5 | COc1cc(O)c(CC=C(C)C)c(O)c1C(=O)CCc1ccc(O)cc1 [2HXN, 3′-(3,3-dimethylallyl)-4,2′,4′-trihydroxy-6′-methoxy-α,β-dihydrochalcone] | 1.8 ± 0.64 µM

same assay, conditions: IC50 HLMEC / IC50 A-2780

Row | Structure (SMILES) | Selectivity index SIA, A-2780
6 | COc1cc(O)c(CC=C(C)C)c(O)c1C(=O)CCc1ccc(O)cc1 [2HXN, 3′-(3,3-dimethylallyl)-4,2′,4′-trihydroxy-6′-methoxy-α,β-dihydrochalcone] | 7.87

same assay, conditions: IC50 MCF-10A / IC50 A-2780

Row | Structure (SMILES) | Selectivity index SIB, A-2780
7 | COc1cc(O)c(CC=C(C)C)c(O)c1C(=O)CCc1ccc(O)cc1 [2HXN, 3′-(3,3-dimethylallyl)-4,2′,4′-trihydroxy-6′-methoxy-α,β-dihydrochalcone] | 40.03

same assay, conditions: ratio of SIA to SIA of cisplatin

Row | Structure (SMILES) | SIA against A2780, times higher than the reference
8 | COc1cc(O)c(CC=C(C)C)c(O)c1C(=O)CCc1ccc(O)cc1 [2HXN, 3′-(3,3-dimethylallyl)-4,2′,4′-trihydroxy-6′-methoxy-α,β-dihydrochalcone] | 5-8 times

test system: PC-3 human prostate cancer cell line; test: SRB antiproliferative assay, PC-3; assay type: cell-based; conditions: Homo sapiens; SRB, 72 h, mean ± SD
Experimental: as §1, §2, §3, §4, §5, §6, §7

Row | Structure (SMILES) | IC50
9 | COc1cc(O)c(CC=C(C)C)c(O)c1C(=O)CCc1ccc(O)cc1 [2HXN, 3′-(3,3-dimethylallyl)-4,2′,4′-trihydroxy-6′-methoxy-α,β-dihydrochalcone] | 16.3 ± 5.22 µM

same assay, conditions: IC50 HLMEC / IC50 PC-3

Row | Structure (SMILES) | Selectivity index SIA, PC-3
10 | COc1cc(O)c(CC=C(C)C)c(O)c1C(=O)CCc1ccc(O)cc1 [2HXN, 3′-(3,3-dimethylallyl)-4,2′,4′-trihydroxy-6′-methoxy-α,β-dihydrochalcone] | 0.87

same assay, conditions: IC50 MCF-10A / IC50 PC-3

Row | Structure (SMILES) | Selectivity index SIB, PC-3
11 | COc1cc(O)c(CC=C(C)C)c(O)c1C(=O)CCc1ccc(O)cc1 [2HXN, 3′-(3,3-dimethylallyl)-4,2′,4′-trihydroxy-6′-methoxy-α,β-dihydrochalcone] | 4.43

test system: T-47D human breast cancer cell line; test: SRB antiproliferative assay, T-47D; assay type: cell-based; conditions: Homo sapiens, T47D; SRB, 72 h, mean ± SD
Experimental: as §1, §2, §3, §4, §5, §6, §7

Row | Structure (SMILES) | IC50
12 | COc1cc(O)c(CC=C(C)C)c(O)c1C(=O)CCc1ccc(O)cc1 [2HXN, 3′-(3,3-dimethylallyl)-4,2′,4′-trihydroxy-6′-methoxy-α,β-dihydrochalcone] | 7.27 ± 3.05 µM

same assay, conditions: IC50 HLMEC / IC50 T-47D

Row | Structure (SMILES) | Selectivity index SIA, T-47D
13 | COc1cc(O)c(CC=C(C)C)c(O)c1C(=O)CCc1ccc(O)cc1 [2HXN, 3′-(3,3-dimethylallyl)-4,2′,4′-trihydroxy-6′-methoxy-α,β-dihydrochalcone] | 1.95

same assay, conditions: IC50 MCF-10A / IC50 T-47D

Row | Structure (SMILES) | Selectivity index SIB, T-47D
14 | COc1cc(O)c(CC=C(C)C)c(O)c1C(=O)CCc1ccc(O)cc1 [2HXN, 3′-(3,3-dimethylallyl)-4,2′,4′-trihydroxy-6′-methoxy-α,β-dihydrochalcone] | 9.91

test system: DU 145 human prostate cancer cell line; test: SRB antiproliferative assay, DU 145; assay type: cell-based; conditions: Homo sapiens, DU-145; SRB, 72 h, mean ± SD
Experimental: as §1, §2, §3, §4, §5, §6, §7

Row | Structure (SMILES) | IC50
15 | COc1cc(O)c(CC=C(C)C)c(O)c1C(=O)CCc1ccc(O)cc1 [2HXN, 3′-(3,3-dimethylallyl)-4,2′,4′-trihydroxy-6′-methoxy-α,β-dihydrochalcone] | 13 ± 4.2 µM

same assay, conditions: IC50 HLMEC / IC50 Du-145

Row | Structure (SMILES) | Selectivity index SIA, Du-145
16 | COc1cc(O)c(CC=C(C)C)c(O)c1C(=O)CCc1ccc(O)cc1 [2HXN, 3′-(3,3-dimethylallyl)-4,2′,4′-trihydroxy-6′-methoxy-α,β-dihydrochalcone] | 1.09

same assay, conditions: IC50 MCF-10A / IC50 Du-145

Row | Structure (SMILES) | Selectivity index SIB, Du-145
17 | COc1cc(O)c(CC=C(C)C)c(O)c1C(=O)CCc1ccc(O)cc1 [2HXN, 3′-(3,3-dimethylallyl)-4,2′,4′-trihydroxy-6′-methoxy-α,β-dihydrochalcone] | 5.56

test system: HLMEC human lung microvascular endothelial cell line; test: SRB antiproliferative assay, HLMEC (normal); assay type: cell-based; conditions: Homo sapiens, Endothelial cell, 72 h, mean ± SD

Row | Structure (SMILES) | IC50
18 | COc1cc(O)c(CC=C(C)C)c(O)c1C(=O)CCc1ccc(O)cc1 [2HXN, 3′-(3,3-dimethylallyl)-4,2′,4′-trihydroxy-6′-methoxy-α,β-dihydrochalcone] | 14.2 ± 4.24 µM

test system: MDA-MB-231 human breast cancer cell line; test: SRB antiproliferative assay, MDA-MB-231; assay type: cell-based; conditions: Homo sapiens, MDA-MB-231; SRB, 72 h, mean ± SD
Experimental: as §1, §2, §3, §4, §5, §6, §7

Row | Structure (SMILES) | IC50
19 | COc1cc(O)c(CC=C(C)C)c(O)c1C(=O)CCc1ccc(O)cc1 [2HXN, 3′-(3,3-dimethylallyl)-4,2′,4′-trihydroxy-6′-methoxy-α,β-dihydrochalcone] | 10 ± 3.26 µM

same assay, conditions: IC50 HLMEC / IC50 MDA-MB-231

Row | Structure (SMILES) | Selectivity index SIA, MDA-MB-231
20 | COc1cc(O)c(CC=C(C)C)c(O)c1C(=O)CCc1ccc(O)cc1 [2HXN, 3′-(3,3-dimethylallyl)-4,2′,4′-trihydroxy-6′-methoxy-α,β-dihydrochalcone] | 1.41

same assay, conditions: IC50 MCF-10A / IC50 MDA-MB-231

Row | Structure (SMILES) | Selectivity index SIB, MDA-MB-231
21 | COc1cc(O)c(CC=C(C)C)c(O)c1C(=O)CCc1ccc(O)cc1 [2HXN, 3′-(3,3-dimethylallyl)-4,2′,4′-trihydroxy-6′-methoxy-α,β-dihydrochalcone] | 7.19

test system: HT-29 human colon cancer cell line; test: SRB antiproliferative assay, HT-29; assay type: cell-based; conditions: Homo sapiens, HT-29; SRB, 72 h, mean ± SD

Row | Structure (SMILES) | IC50
22 | COc1cc(O)c(CC=C(C)C)c(O)c1C(=O)CCc1ccc(O)cc1 [2HXN, 3′-(3,3-dimethylallyl)-4,2′,4′-trihydroxy-6′-methoxy-α,β-dihydrochalcone] | 12.2 ± 2.99 µM

same assay, conditions: IC50 HLMEC / IC50 HT-29

Row | Structure (SMILES) | Selectivity index SIA, HT-29
23 | COc1cc(O)c(CC=C(C)C)c(O)c1C(=O)CCc1ccc(O)cc1 [2HXN, 3′-(3,3-dimethylallyl)-4,2′,4′-trihydroxy-6′-methoxy-α,β-dihydrochalcone] | 1.16

same assay, conditions: IC50 MCF-10A / IC50 HT-29

Row | Structure (SMILES) | Selectivity index SIB, HT-29
24 | COc1cc(O)c(CC=C(C)C)c(O)c1C(=O)CCc1ccc(O)cc1 [2HXN, 3′-(3,3-dimethylallyl)-4,2′,4′-trihydroxy-6′-methoxy-α,β-dihydrochalcone] | 5.89

test system: A2780cis human cisplatin-resistant ovarian cancer cell line; test: SRB antiproliferative assay, A2780cis; assay type: cell-based; conditions: Homo sapiens, A2780cis; SRB, 72 h, mean ± SD; read-out: Cancer cell line, IC50, A-2780cis
Experimental: as §1, §2, §3, §4, §5, §6, §7

Row | Structure (SMILES) | IC50
25 | COc1cc(O)c(CC=C(C)C)c(O)c1C(=O)CCc1ccc(O)cc1 [2HXN, 3′-(3,3-dimethylallyl)-4,2′,4′-trihydroxy-6′-methoxy-α,β-dihydrochalcone] | 11.6 ± 3.36 µM

same assay, conditions: IC50 HLMEC / IC50 A-2780cis

Row | Structure (SMILES) | Selectivity index SIA, A-2780cis
26 | COc1cc(O)c(CC=C(C)C)c(O)c1C(=O)CCc1ccc(O)cc1 [2HXN, 3′-(3,3-dimethylallyl)-4,2′,4′-trihydroxy-6′-methoxy-α,β-dihydrochalcone] | 1.22

same assay, conditions: IC50 MCF-10A / IC50 A-2780cis

Row | Structure (SMILES) | Selectivity index SIB, A-2780cis
27 | COc1cc(O)c(CC=C(C)C)c(O)c1C(=O)CCc1ccc(O)cc1 [2HXN, 3′-(3,3-dimethylallyl)-4,2′,4′-trihydroxy-6′-methoxy-α,β-dihydrochalcone] | 6.22

Reference: PMC6278664, “Highly Cancer Selective Antiproliferative Activity of Natural Prenylated Flavonoids” (Molecules, 2018)
